For assay [1], the target named is DNA topoisomerase 2-alpha (Homo sapiens) (UniProt P11388). The experiment in a line: Inhibition of recombinant human topoisomerase 2alpha-mediated relaxation of supercoiled pBR322 DNA at 20 uM measured after 30 mins by ethidium bromide staining based agarose gel electrophoresis relative to control.
Assay [2] concerns HCT-15. The experiment in a line: Antiproliferative activity against human HCT15 cells measured after 72 hrs by EZ-Cytox assay. It counts as functional, cell-based. The settings on record: HCT-15, 72 h.
Assay [3] deals with T47D. The experiment in a line: Antiproliferative activity against human T47D cells measured after 72 hrs by EZ-Cytox assay. It counts as functional, cell-based.
Assay [4] deals with HeLa. The experiment in a line: Antiproliferative activity against human HeLa cells measured after 72 hrs by EZ-Cytox assay. The assay is classed as functional, cell-based.
Assay [5] deals with DU-145. The experiment in a line: Antiproliferative activity against human DU145 cells measured after 72 hrs by EZ-Cytox assay. The assay is classed as functional, cell-based. Conditions: DU-145, 72 h.
The target in assay [6] is DNA topoisomerase 2-alpha (Homo sapiens) (UniProt P11388). The experiment in a line: Inhibition of recombinant human topoisomerase 2alpha-mediated relaxation of supercoiled pBR322 DNA at 100 uM measured after 30 mins by ethidium bromide staining based agarose gel electrophoresis relative to control.
In assay [7] the target is T1, DNA topoisomerase 1 (Homo sapiens) (UniProt P11387).
T1 sequence (whole entry): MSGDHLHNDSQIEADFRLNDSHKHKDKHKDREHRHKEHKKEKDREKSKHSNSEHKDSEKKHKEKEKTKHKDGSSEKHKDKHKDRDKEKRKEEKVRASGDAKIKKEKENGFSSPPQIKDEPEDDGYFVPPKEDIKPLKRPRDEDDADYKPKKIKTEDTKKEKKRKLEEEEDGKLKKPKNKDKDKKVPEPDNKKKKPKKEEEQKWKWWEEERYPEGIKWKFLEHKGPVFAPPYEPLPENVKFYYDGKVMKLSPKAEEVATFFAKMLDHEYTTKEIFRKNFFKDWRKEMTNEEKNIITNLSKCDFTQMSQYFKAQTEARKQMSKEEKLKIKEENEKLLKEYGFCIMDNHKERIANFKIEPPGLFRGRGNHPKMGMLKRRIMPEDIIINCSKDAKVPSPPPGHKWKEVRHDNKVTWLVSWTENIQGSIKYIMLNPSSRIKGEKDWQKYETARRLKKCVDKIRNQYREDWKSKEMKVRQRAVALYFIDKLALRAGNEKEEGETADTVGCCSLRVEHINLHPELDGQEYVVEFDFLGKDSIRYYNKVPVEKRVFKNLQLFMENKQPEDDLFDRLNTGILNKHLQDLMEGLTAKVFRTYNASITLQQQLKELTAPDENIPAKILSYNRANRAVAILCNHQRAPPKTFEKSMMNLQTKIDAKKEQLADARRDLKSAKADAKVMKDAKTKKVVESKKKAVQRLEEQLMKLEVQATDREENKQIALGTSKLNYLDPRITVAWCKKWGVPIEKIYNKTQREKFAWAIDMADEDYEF
The experiment in a line: Inhibition of recombinant human topoisomerase 1-mediated relaxation of supercoiled pBR322 DNA at 100 uM measured after 30 mins by ethidium bromide staining based agarose gel electrophoresis relative to control.

Sequence of DNA topoisomerase 2-alpha (Homo sapiens) (P11388 whole entry): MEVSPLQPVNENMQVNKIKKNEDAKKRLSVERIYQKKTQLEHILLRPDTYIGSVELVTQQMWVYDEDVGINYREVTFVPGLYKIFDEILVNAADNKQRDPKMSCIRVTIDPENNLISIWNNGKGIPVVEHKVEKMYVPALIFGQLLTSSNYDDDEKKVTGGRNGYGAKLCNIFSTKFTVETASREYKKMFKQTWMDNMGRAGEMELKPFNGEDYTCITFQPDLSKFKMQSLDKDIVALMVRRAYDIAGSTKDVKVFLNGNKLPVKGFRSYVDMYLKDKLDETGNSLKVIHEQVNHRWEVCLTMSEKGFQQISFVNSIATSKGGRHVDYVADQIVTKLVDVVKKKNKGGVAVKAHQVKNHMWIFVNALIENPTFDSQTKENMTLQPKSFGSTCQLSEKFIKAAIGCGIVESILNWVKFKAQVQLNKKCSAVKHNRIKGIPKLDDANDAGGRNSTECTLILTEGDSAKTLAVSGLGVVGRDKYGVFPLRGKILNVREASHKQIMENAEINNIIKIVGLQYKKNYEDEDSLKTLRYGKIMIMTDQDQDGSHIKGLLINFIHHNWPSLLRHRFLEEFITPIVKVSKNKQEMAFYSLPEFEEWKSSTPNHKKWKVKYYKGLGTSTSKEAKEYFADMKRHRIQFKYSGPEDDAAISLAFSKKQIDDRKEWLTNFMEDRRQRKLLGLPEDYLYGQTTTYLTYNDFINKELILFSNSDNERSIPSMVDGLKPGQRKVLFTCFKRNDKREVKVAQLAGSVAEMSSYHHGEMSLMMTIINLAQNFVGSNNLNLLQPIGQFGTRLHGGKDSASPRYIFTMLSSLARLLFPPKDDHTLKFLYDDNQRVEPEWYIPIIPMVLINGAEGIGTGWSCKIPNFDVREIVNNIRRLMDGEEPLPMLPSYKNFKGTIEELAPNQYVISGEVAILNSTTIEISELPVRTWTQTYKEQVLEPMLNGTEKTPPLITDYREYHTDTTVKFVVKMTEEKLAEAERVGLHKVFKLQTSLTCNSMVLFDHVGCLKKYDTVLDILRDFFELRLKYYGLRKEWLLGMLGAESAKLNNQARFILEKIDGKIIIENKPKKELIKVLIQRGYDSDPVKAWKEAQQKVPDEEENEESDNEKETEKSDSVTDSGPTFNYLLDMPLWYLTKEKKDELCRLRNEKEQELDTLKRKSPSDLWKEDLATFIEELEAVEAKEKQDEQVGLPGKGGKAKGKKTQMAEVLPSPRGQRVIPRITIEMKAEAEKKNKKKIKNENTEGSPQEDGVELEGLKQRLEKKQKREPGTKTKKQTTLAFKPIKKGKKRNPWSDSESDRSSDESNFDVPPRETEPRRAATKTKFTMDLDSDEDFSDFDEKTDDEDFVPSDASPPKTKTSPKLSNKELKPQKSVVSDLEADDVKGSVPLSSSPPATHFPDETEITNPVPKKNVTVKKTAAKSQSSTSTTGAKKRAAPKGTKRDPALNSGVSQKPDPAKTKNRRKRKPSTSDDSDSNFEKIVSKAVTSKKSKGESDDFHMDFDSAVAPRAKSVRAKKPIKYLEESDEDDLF

In general, inhibition refers to how much of the control response was suppressed. For orientation: IC50 means the concentration at which inhibition is half-maximal. Turning to `Oc1cccc(-c2cc(-c3cccc(C(F)(F)F)c3)nc3c2Cc2c(O)cccc2-3)c1`, the inhibition in assay [1] is 40.5%; in assay [6] it was 67.3%; in assay [7], 5.6%. Moreover, the IC50 in assay [2] was 2.69 µM; in assay [3] it was 1.91 µM; in assay [4], 4.17 µM; in assay [5], 1.62 µM.

Consider `Oc1cccc2c1-c1nc(-c3ccccc3)cc(-c3ccccc3)c1C2`, for which the results for the inhibition in assay [1], in assay [6] and in assay [7] were 0%, 57.5% and 0%, respectively. Further, the IC50 turned out to be 2.07 µM in assay [2], 0.74 µM in assay [3], 3.08 µM in assay [4] and 1.4 µM in assay [5].

As for `Oc1cccc(-c2cc(-c3ccccc3C(F)(F)F)nc3c2Cc2cccc(O)c2-3)c1`, the inhibition in assay [1] came out at 3.3%; in assay [6], 65.2%; in assay [7], 15.9%. The 50% inhibitory concentration (IC50) in assay [2] turned out to be 2.1 µM; in assay [3] it was 1.75 µM; in assay [4] it was 4.69 µM; in assay [5], 1.14 µM.

On to `Oc1cccc(-c2cc(-c3ccc(Cl)cc3)c3c(n2)-c2ccc(O)cc2C3)c1`, for which the values for the inhibition in assay [1], in assay [6] and in assay [7] were 6.2%, 74.3% and 2.1%, respectively. For the same compound, the IC50 in assay [2], in assay [3], in assay [4] and in assay [5] was > 50 µM throughout.

Turning to `Oc1cccc(-c2cc(-c3ccccc3)nc3c2Cc2c(O)cccc2-3)c1`, the inhibition in assay [1] came out at 0%; in assay [6], 95.4%; in assay [7] it was 4.6%. The half-maximal inhibitory concentration (IC50) in assay [2] is 2.52 µM; in assay [3], 2.89 µM; in assay [4], 6.74 µM; in assay [5], 0.19 µM.

Take `Oc1ccccc1-c1cc(-c2ccc(C(F)(F)F)cc2)nc2c1Cc1cccc(O)c1-2`: the inhibition was found to be 0.9% in assay [1], 92.2% in assay [6] and 13.6% in assay [7]. Also, the IC50 was 3.49 µM in assay [2], 4.2 µM in assay [3], 5.24 µM in assay [4] and 4.5 µM in assay [5].

Regarding `Oc1ccccc1-c1cc(-c2cccc(Cl)c2)c2c(n1)-c1c(O)cccc1C2`, the inhibition turned out to be 2.4% in assay [1], 74.5% in assay [6] and 0% in assay [7]. Further, the IC50 was 2.46 µM in assay [2], 1.97 µM in assay [3], 14.3 µM in assay [4] and 2.82 µM in assay [5].

Consider `Oc1ccc2c(c1)Cc1c(-c3ccccc3O)cc(-c3cccc(C(F)(F)F)c3)nc1-2`, for which the results for the inhibition in assay [1], in assay [6] and in assay [7] were 4.1%, 85.4% and 0%, respectively. Further, the IC50 in assay [2] turned out to be 3.89 µM; in assay [3], 0.7 µM; in assay [4] it was 3.1 µM; in assay [5], 1.72 µM.

On to `Oc1ccccc1-c1cc(-c2ccccc2C(F)(F)F)nc2c1Cc1cccc(O)c1-2`, for which the figures for the inhibition in assay [1], in assay [6] and in assay [7] were 4%, 84.8% and 0%, respectively. Moreover, the IC50 was 1.64 µM in assay [2], 0.75 µM in assay [3], 1.99 µM in assay [4] and 2 µM in assay [5].

Take `Oc1ccc(-c2cc(-c3cccc(C(F)(F)F)c3)nc3c2Cc2c(O)cccc2-3)cc1`: the inhibition in assay [1] came out at 0%; in assay [6] it was 84.4%; in assay [7], 9.4%. Further, the IC50 stood at 2.62 µM in assay [2], 1.23 µM in assay [3], 4.57 µM in assay [4] and 1.75 µM in assay [5].

As for `Oc1ccc(-c2cc(-c3ccc(Cl)cc3)nc3c2Cc2ccc(O)cc2-3)cc1`, the inhibition in assay [1] is 0%; in assay [6] it was 74.5%; in assay [7], 0%. Also, the IC50 in assay [2] turned out to be 3.22 µM; in assay [3], 1.15 µM; in assay [4], 1.73 µM; in assay [5], 2.25 µM.

With `Oc1cccc(-c2cc(-c3cccc(Cl)c3)c3c(n2)-c2cccc(O)c2C3)c1`, the inhibition in assay [1] is 2.3%; in assay [6], 64.6%; in assay [7], 7.4%. Besides, the 50% inhibitory concentration (IC50) in assay [2] came to 4.79 µM; in assay [3], 33.1 µM; in assay [4] it was 35.5 µM; in assay [5], 21.3 µM.

Consider `Oc1cccc(-c2cc(-c3ccccc3Cl)c3c(n2)-c2cccc(O)c2C3)c1`, for which the inhibition worked out at 11.4% in assay [1], 67.5% in assay [6] and 28.1% in assay [7]. Besides, the 50% inhibitory concentration (IC50) is 8.28 µM in assay [2], 2.88 µM in assay [3], 7.36 µM in assay [4] and 5.63 µM in assay [5].

Regarding `Oc1ccc2c(c1)-c1nc(-c3cccc(Cl)c3)cc(-c3ccccc3O)c1C2`, the inhibition is 10.8% in assay [1], 87.9% in assay [6] and 22.9% in assay [7]. The 50% inhibitory concentration (IC50) in assay [2] is 1.76 µM; in assay [3] it was 1.16 µM; in assay [4], 2.77 µM; in assay [5], 0.32 µM.

Turning to `Oc1ccc(-c2cc(-c3cccc(Cl)c3)c3c(n2)-c2c(O)cccc2C3)cc1`, the inhibition was found to be 13.3% in assay [1], 71.6% in assay [6] and 3.2% in assay [7]. In addition, the IC50 in assay [2] is > 50 µM; in assay [3] it was 19 µM; in assay [4], 43.8 µM; in assay [5] it was 6.04 µM.

Turning to `Oc1ccc2c(c1)-c1nc(-c3ccccc3C(F)(F)F)cc(-c3ccccc3O)c1C2`, the inhibition in assay [1] was 3.4%; in assay [6], 86.1%; in assay [7], 0.4%. The half-maximal inhibitory concentration (IC50) in assay [2] stood at 4.04 µM; in assay [3] it was 1.41 µM; in assay [4] it was 2.96 µM; in assay [5] it was 2.86 µM.

In the case of `Oc1cccc(-c2cc(-c3ccc(Cl)cc3)c3c(n2)-c2c(O)cccc2C3)c1`, the inhibition in assay [1] was 8.5%; in assay [6], 95.7%; in assay [7], 9.3%. Also, the IC50 was 14.7 µM in assay [2], 2.22 µM in assay [3], 9.01 µM in assay [4] and 4.07 µM in assay [5].

Regarding `Oc1ccccc1-c1cc(-c2ccc(F)cc2)nc2c1Cc1c(O)cccc1-2`, the inhibition in assay [1] worked out at 0%; in assay [6] it was 67%; in assay [7] it was 0%. Moreover, the IC50 came to 4.31 µM in assay [2], 0.61 µM in assay [3], 31.9 µM in assay [4] and 2.36 µM in assay [5].

Take `Oc1ccc(-c2cc(-c3ccccc3)c3c(n2)-c2cc(O)ccc2C3)cc1`: the inhibition in assay [1] was 9.3%; in assay [6], 54.8%; in assay [7], 20.9%. The half-inhibitory concentration (IC50) in assay [2] was 1.43 µM; in assay [3] it was 3.43 µM; in assay [4], 2.74 µM; in assay [5], 0.57 µM.

On to `Oc1ccc(-c2cc(-c3ccccc3F)nc3c2Cc2c(O)cccc2-3)cc1`, for which the half-inhibitory concentration (IC50) was determined as 2.81 µM in assay [2], 0.87 µM in assay [3], 6.19 µM in assay [4] and 1.81 µM in assay [5]. Further, the inhibition is 15.3% in assay [6] and 5.4% in assay [7].

`Oc1ccc2c(c1)Cc1c(-c3ccccc3O)cc(-c3ccc(F)cc3)nc1-2`: the IC50 in assay [2] came to 4.61 µM; in assay [3], 3.14 µM; in assay [4] it was 14.3 µM; in assay [5] it was 4.76 µM. The inhibition in assay [6] is 6%; in assay [7] it was 0%.

`Oc1ccc2c(c1)-c1nc(-c3ccc(F)cc3)cc(-c3ccccc3O)c1C2`: the half-inhibitory concentration (IC50) in assay [2] was 3.13 µM; in assay [3], 0.19 µM; in assay [4] it was 4.38 µM; in assay [5] it was 3.49 µM. Moreover, the inhibition came to 23.3% in assay [6] and 0% in assay [7].

On to `Oc1ccc2c(c1)-c1nc(-c3cccc(F)c3)cc(-c3ccccc3O)c1C2`, for which the IC50 in assay [2] was determined as 2.9 µM; in assay [3], 0.68 µM; in assay [4], 4.22 µM; in assay [5], 0.86 µM. The inhibition in assay [6] came to 28.3%; in assay [7], 0%.

Turning to `Oc1cccc(-c2cc(-c3ccccc3)c3c(n2)-c2c(O)cccc2C3)c1`, the concentration for half-maximal inhibition (IC50) in assay [2] is > 50 µM; in assay [3] it was 3.68 µM; in assay [4], > 50 µM; in assay [5], 0.43 µM. For the same compound, the inhibition in assay [6] and in assay [7] was 0% each time.
